Experiment [1] relates to prostaglandin e2. The following applies: cited from earlier work; for change in serum levels of prostaglandin e2: niceritrol alone, Aspirin® added to niceritrol.
The test system of experiment [2] is prostaglandin e2 like substance (PGe2-LS). The settings on record: cited from earlier work; for PGe2-LS release (M±SE): samples treated with indomethacin and the pyridine derivative, control group 0.54±0.06, n=5.
The subject of experiment [3] is prostaglandin e2. Briefly: serum prostaglandin e2 levels in normal male volunteers after niceritrol and Aspirin® (Nozaki et al. 1987). The settings on record: after administration of niceritrol and Aspirin®; basal 23.3±11.8 pg/ml. In kind it is in vivo, human. The source says:
FIG. 3. is prostaglandin e2 section extracted by inventors from graph of FIG. 1. from publication “Increased compliance of niceritrol treatment by addition of Aspirin®: relationship between changes in prostaglandins and skin flushing.” (Nozaki, S. et al., 1987, Int J Clin Pharmacol Ther Toxicol, v 25, p: 643-7). Inventors marked on said figure extracted by inventors by using UN-SCAN-IT® basal (52.3, 33.6, 26.6, 21.2, 19.1, 18.1, 16.8, 16.0, 15.1, 13.9), and after niceritrol and Aspirin® administration (46.2, 16.6, 42.0, 44.1, 8.2, 11.4, 18.6, 9.9, 27.6, 6.2) concentration coordinates (pg/ml) of prostaglandin e2. […]
Inventors used UN-SCAN-IT® to obtain digital concentration data from prostaglandin e2 section of the graph from the FIG. 1. of the publication (FIG. 3.). The obtained by inventors serum basal (52.3, 33.6, 26.6, 21.2, 19.1, 18.1, 16.8, 16.0, 15.1, 13.9), and after niceritrol and Aspirin® administration (46.2, 16.6, 42.0, 44.1, 8.2, 11.4, 18.6, 9.9, 27.6, 6.2) prostaglandin e2 digital levels (pg/ml) were statistically analysed using paired t-test.

The test system of experiment [4] is prostaglandin e2. The following applies: cited from earlier work; for prostaglandin e2 concentration: nicotine pre-treated cells, highest NSAID concentration (log M=−4), absence of IL-18, basal 0.35 nM, digitised from published graph; for effect on nicotine-induced PGE2 production: nicotine-treated cells.
Experiment [5] has as its system prostaglandin e2. The settings on record: cited from earlier work; for effect on nicotine-initiated prostaglandin e2 production: cells treated with 100 mcM nicotine, NSAID 0.1 to 100 mcM; for prostaglandin e2 concentration: nicotine (100 mcM) pre-treated cells, highest NSAID concentration (log M=−4), absence of IL-18, basal 337 pM, digitised from published graph.
In experiment [6] the test system is radioimmunoassayed prostaglandin E (R-PGE). The settings on record: basal 21±10 pg/ml, cited from earlier work.
Experiment [7] has the same test system. The following applies: naproxen and nicotinic acid, basal 35.6±29.8, cited from earlier work.

Molecules are shown by their SMILES. “And” between values parts separate entries of the source, which are not always exact repeats. Identical values can stand only once. Like-named read-outs stand apart in the source and are kept apart here.

Take `CC(=O)Oc1ccccc1C(=O)O` [Aspirin®]: in experiment [1], the “change in serum levels of prostaglandin e2” value was “significantly decreased”.

As to `Cc1ncc(CO)c(CO)c1O.Cl` [pyridoxine hydrochloride], the “PGe2-LS release (M±SE)” value in experiment [2] is 0.44 ± 0.02 ng/min.

In the case of `OCc1cccnc1` [nicotinyl alcohol], the “PGe2-LS release (M±SE)” value in experiment [2] was 0.52 ± 0.06 ng/min.

In the case of `O=C(OCC(COC(=O)c1cccnc1)(COC(=O)c1cccnc1)COC(=O)c1cccnc1)c1cccnc1` [niceritrol], the “serum prostaglandin e2 level, individual volunteers” value in experiment [1] (after niceritrol and Aspirin® administration, 10 normal male volunteers, digitised from published graph) was 46.2 pg/mL and 6.2 pg/mL and 16.6 pg/mL and 42.0 pg/mL and 44.1 pg/mL and 8.2 pg/mL and 11.4 pg/mL and 18.6 pg/mL and 9.9 pg/mL and 27.6 pg/mL. Also, the “change in serum levels of prostaglandin e2” value in experiment [1] is “significantly increased”. Further, the “mean (M±SD) serum prostaglandin e2 concentration” value in experiment [3] was 23.1 ± 15.8 pg/mL.

For the molecule `COc1ccc2c(c1)c(CC(=O)O)c(C)n2C(=O)c1ccc(Cl)cc1` [indomethacin], in experiment [4], the “prostaglandin e2 concentration” value is recorded as 0.50 nM and the “effect on nicotine-induced PGE2 production” value is “inhibited”. For the same molecule, the “effect on PGe2-LS release stimulated by pyridine derivatives” value in experiment [2] (indomethacin treatment) is listed as “reduced”. Besides, in experiment [5], the “effect on nicotine-initiated prostaglandin e2 production” value was “suppressed” and the “prostaglandin e2 concentration” value is 768 pM.

Regarding `O=C(O)c1cccnc1` [nicotinic acid], the “plasma concentration of R-PGE (M±SE)” value in experiment [6] (infusion of nicotinic acid) was 49 ± 7 pg/mL; in experiment [6] (nicotinic acid infusion after naproxen treatment, n=3), 8 ± 2 pg/mL. Besides, the “PGe2-LS release (M±SE)” value in experiment [2] is 0.63 ± 0.03 ng/min. The “actual release of R-PGE (M±SE)” value in experiment [7] (5 min) is recorded as 8.2±13.8 pg/100 ml tissue×min; in experiment [7] (10 min), 10.6±16.6 pg/100 ml tissue×min; in experiment [7] (20 min), 18.8±16.2 pg/100 ml tissue×min; in experiment [7] (60 min), 15.1±13 pg/100 ml tissue×min.

As to `CN(C)C(=O)Oc1ccc[n+](C)c1` [pyridostigmine bromide], the “PGe2-LS release (M±SE)” value in experiment [2] is 0.50 ± 0.06 ng/min.

`CS(=O)(=O)Nc1ccc([N+](=O)[O-])cc1OC1CCCCC1` [NS398]: in experiment [4], the “prostaglandin e2 concentration” value is 0.55 nM and the “effect on nicotine-induced PGE2 production” value is “inhibited”. Besides, in experiment [5], the “effect on nicotine-initiated prostaglandin e2 production” value is recorded as “suppressed” and the “prostaglandin e2 concentration” value is listed as 761 pM.

Values taken from patent US20130109655A1, “Method for mitigating of Prostaglandin E2 reducing side effects of non-steroidal anti-inflammatory drugs” (priority 2011, published 2013).
